From patent US20060252807A1, “Novel ortho-terphenyl inhibitors of p38 kinase and methods of treating inflammatory disorders” (Kalypsys, Inc., priority 2005, published 2006)

Each compound was assayed against T1, active p38 alpha enzyme (Upstate Biotechnology) (Homo sapiens, UniProt Q16539) (assay: p38α biochemical assay (ATP turnover, luminescent detection, Cambrex PKlight)). Settings: p38α biochemical assay, Table 1 Biological Activity.
T1 construct: purchased Upstate Biotechnology
Summary of the method: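 Measures total ATP turnover by luminescence after human p38α phosphorylates full MapkapK2 protein. Final ATP is 1.4 uM, and incubation runs 2 hours at 30C. The buffer includes 100 mM MgCl2, 4 mM CaCl2 and 1 mg/ml BSA.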

T1 sequence (Q16539 whole entry): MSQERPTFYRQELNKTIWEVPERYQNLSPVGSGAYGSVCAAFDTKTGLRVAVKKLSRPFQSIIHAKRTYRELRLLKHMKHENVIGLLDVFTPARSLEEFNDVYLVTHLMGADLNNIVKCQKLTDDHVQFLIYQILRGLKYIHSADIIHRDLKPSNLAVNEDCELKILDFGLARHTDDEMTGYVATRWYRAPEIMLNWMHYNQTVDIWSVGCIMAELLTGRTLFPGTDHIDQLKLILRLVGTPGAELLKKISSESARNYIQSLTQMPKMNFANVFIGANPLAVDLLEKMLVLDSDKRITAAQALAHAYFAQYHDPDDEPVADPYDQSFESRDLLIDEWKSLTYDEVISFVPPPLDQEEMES

Row | IC50 [nM] | Structure (SMILES)
1 | ≤ 1000 | CC(C)NC(=O)c1csc(-c2c(-c3ccc(F)cc3)noc2CNC(=O)CC#N)n1 [Example 575]
2 | > 1000 | CC(C)NC(=O)c1csc(-c2c(-c3ccc(F)cc3)noc2CNC(=O)C(C)O)n1 (stereo not shown) [Example 576]
3 | > 1000 | CCC(=O)C(=O)NCc1onc(-c2ccc(F)cc2)c1-c1nc(C(=O)NC(C)C)cs1 [Example 577]
4 | > 1000 | CC(C)NC(=O)c1csc(-c2c(-c3ccc(F)cc3)noc2CNC(=O)C(C)(C)C)n1 [Example 578]
5 | > 1000 | CC(C)CC(=O)NCc1onc(-c2ccc(F)cc2)c1-c1nc(C(=O)NC(C)C)cs1 [Example 579]
6 | > 1000 | CC(C)NC(=O)c1csc(-c2c(-c3ccc(F)cc3)noc2CNC(=O)c2cnc[nH]2)n1 [Example 580]
7 | > 1000 | CC(C)NC(=O)c1csc(-c2c(-c3ccc(F)cc3)noc2CNC(=O)c2ncc[nH]2)n1 [Example 581]
8 | > 1000 | CC(C)NC(=O)c1csc(-c2c(-c3ccc(F)cc3)noc2CNC(=O)C2=CCCC2)n1 [Example 582]
9 | ≤ 1000 | CC(C)NC(=O)c1csc(-c2c(-c3ccc(F)cc3)noc2CNC(=O)C(F)(F)F)n1 [Example 583]
10 | > 1000 | CC(C)NC(=O)c1csc(-c2c(-c3ccc(F)cc3)noc2CNC(=O)C2CCCO2)n1 (stereo not shown) [Example 584]
11 | > 1000 | CC(=O)NCC(=O)NCc1onc(-c2ccc(F)cc2)c1-c1nc(C(=O)NC(C)C)cs1 [Example 585]
12 | > 1000 | CC(C)NC(=O)c1csc(-c2c(-c3ccc(F)cc3)noc2CNC(=O)c2ccccc2)n1 [Example 586]
13 | > 1000 | CC(C)NC(=O)c1csc(-c2c(-c3ccc(F)cc3)noc2CNC(=O)c2cccnc2)n1 [Example 587]
14 | > 1000 | CC(C)NC(=O)c1csc(-c2c(-c3ccc(F)cc3)noc2CNC(=O)c2ccncc2)n1 [Example 588]
15 | > 1000 | CC(C)NC(=O)c1csc(-c2c(-c3ccc(F)cc3)noc2CNC(=O)c2ccccn2)n1 [Example 589]
16 | ≤ 1000 | CC(C)NC(=O)c1csc(-c2c(-c3ccc(F)cc3)noc2CNC(=O)C(O)CCl)n1 (stereo not shown) [Example 590]
17 | > 1000 | Cc1cc(C(=O)NCc2onc(-c3ccc(F)cc3)c2-c2nc(C(=O)NC(C)C)cs2)n[nH]1 [Example 591]
18 | > 1000 | CC(C)NC(=O)c1csc(-c2c(-c3ccc(F)cc3)noc2CNC(=O)c2cn(C)cn2)n1 [Example 592]
19 | > 1000 | CC(C)NC(=O)c1csc(-c2c(-c3ccc(F)cc3)noc2CNC(=O)C2CCCCC2)n1 [Example 593]
20 | > 1000 | CC(C)NC(=O)c1csc(-c2c(-c3ccc(F)cc3)noc2CNC(=O)c2cscn2)n1 [Example 594]
21 | > 1000 | CCOC(=O)CC(=O)NCc1onc(-c2ccc(F)cc2)c1-c1nc(C(=O)NC(C)C)cs1 [Example 595]
22 | > 1000 | Cc1cccc(C(=O)NCc2onc(-c3ccc(F)cc3)c2-c2nc(C(=O)NC(C)C)cs2)c1 [Example 596]
23 | > 1000 | Cc1ccccc1C(=O)NCc1onc(-c2ccc(F)cc2)c1-c1nc(C(=O)NC(C)C)cs1 [Example 597]
24 | > 1000 | Cc1ccc(C(=O)NCc2onc(-c3ccc(F)cc3)c2-c2nc(C(=O)NC(C)C)cs2)cc1 [Example 598]
25 | > 1000 | CC(C)NC(=O)c1csc(-c2c(-c3ccc(F)cc3)noc2CNC(=O)c2cccc(O)c2)n1 [Example 599]

Row | IC50 [nM] | Structure (SMILES)
26 | > 1000 | CC(C)NC(=O)c1csc(-c2c(-c3ccc(F)cc3)noc2CNC(=O)c2ccccc2O)n1 [Example 600]
27 | > 1000 | CC(C)NC(=O)c1csc(-c2c(-c3ccc(F)cc3)noc2CNC(=O)c2ccc(F)cc2)n1 [Example 601]
28 | > 1000 | CC(C)NC(=O)c1csc(-c2c(-c3ccc(F)cc3)noc2CNC(=O)c2cccc(F)c2)n1 [Example 602]
29 | > 1000 | CCCCCCCC(=O)NCc1onc(-c2ccc(F)cc2)c1-c1nc(C(=O)NC(C)C)cs1 [Example 603]
30 | > 1000 | CC(C)NC(=O)c1csc(-c2c(-c3ccc(F)cc3)noc2CNC(=O)c2ccc(C#N)cc2)n1 [Example 604]
31 | > 1000 | CC(C)NC(=O)c1csc(-c2c(-c3ccc(F)cc3)noc2CNC(=O)c2cccc(C#N)c2)n1 [Example 605]
32 | > 1000 | CC(C)NC(=O)c1csc(-c2c(-c3ccc(F)cc3)noc2CNC(=O)/C=C/c2ccccc2)n1 [Example 606]
33 | > 1000 | CC(C)NC(=O)c1csc(-c2c(-c3ccc(F)cc3)noc2CNC(=O)c2ccccc2C=O)n1 [Example 607]
34 | > 1000 | CC(C)NC(=O)c1csc(-c2c(-c3ccc(F)cc3)noc2CNC(=O)c2ccc(C=O)cc2)n1 [Example 608]
35 | > 1000 | Cc1ccc(C(=O)NCc2onc(-c3ccc(F)cc3)c2-c2nc(C(=O)NC(C)C)cs2)c(C)c1 [Example 609]
36 | > 1000 | Cc1ccccc1CC(=O)NCc1onc(-c2ccc(F)cc2)c1-c1nc(C(=O)NC(C)C)cs1 [Example 610]
37 | > 1000 | Cc1cccc(C(=O)NCc2onc(-c3ccc(F)cc3)c2-c2nc(C(=O)NC(C)C)cs2)c1C [Example 611]
38 | > 1000 | Cc1ccc(C)c(C(=O)NCc2onc(-c3ccc(F)cc3)c2-c2nc(C(=O)NC(C)C)cs2)c1 [Example 612]
39 | > 1000 | Cc1cc(C)cc(C(=O)NCc2onc(-c3ccc(F)cc3)c2-c2nc(C(=O)NC(C)C)cs2)c1 [Example 613]
40 | > 1000 | Cc1ccc(C(=O)NCc2onc(-c3ccc(F)cc3)c2-c2nc(C(=O)NC(C)C)cs2)cc1C [Example 614]
41 | > 1000 | CCc1ccc(C(=O)NCc2onc(-c3ccc(F)cc3)c2-c2nc(C(=O)NC(C)C)cs2)cc1 [Example 615]
42 | > 1000 | COc1ccc(C(=O)NCc2onc(-c3ccc(F)cc3)c2-c2nc(C(=O)NC(C)C)cs2)cc1 [Example 616]
43 | > 1000 | Cc1cccc(C(=O)NCc2onc(-c3ccc(F)cc3)c2-c2nc(C(=O)NC(C)C)cs2)c1O [Example 617]
44 | > 1000 | CC(C)NC(=O)c1csc(-c2c(-c3ccc(F)cc3)noc2CNC(=O)Cc2ccccc2O)n1 [Example 618]
45 | ≤ 1000 | CC(C)NC(=O)c1csc(-c2c(-c3ccc(F)cc3)noc2CNC(=O)Cc2cccc(O)c2)n1 [Example 619]
46 | > 1000 | Cc1ccc(O)c(C(=O)NCc2onc(-c3ccc(F)cc3)c2-c2nc(C(=O)NC(C)C)cs2)c1 [Example 620]
47 | > 1000 | CC(C)NC(=O)c1csc(-c2c(-c3ccc(F)cc3)noc2CNC(=O)c2cc(O)ccc2O)n1 [Example 621]
48 | > 1000 | CC(C)NC(=O)c1csc(-c2c(-c3ccc(F)cc3)noc2CNC(=O)c2cccc(O)c2O)n1 [Example 622]
49 | > 1000 | CC(C)NC(=O)c1csc(-c2c(-c3ccc(F)cc3)noc2CNC(=O)c2ccc(O)cc2O)n1 [Example 623]
50 | > 1000 | Cc1ccc(C(=O)NCc2onc(-c3ccc(F)cc3)c2-c2nc(C(=O)NC(C)C)cs2)cc1F [Example 624]

Row | IC50 [nM] | Structure (SMILES)
51 | > 1000 | Cc1ccc(F)cc1C(=O)NCc1onc(-c2ccc(F)cc2)c1-c1nc(C(=O)NC(C)C)cs1 [Example 625]
52 | > 1000 | CC(C)NC(=O)c1csc(-c2c(-c3ccc(F)cc3)noc2CNC(=O)c2ccccc2Cl)n1 [Example 626]
53 | > 1000 | CC(C)NC(=O)c1csc(-c2c(-c3ccc(F)cc3)noc2CNC(=O)c2ccc(Cl)nc2)n1 [Example 627]
54 | > 1000 | CC(C)NC(=O)c1csc(-c2c(-c3ccc(F)cc3)noc2CNC(=O)c2cccnc2Cl)n1 [Example 628]
55 | > 1000 | CC(C)NC(=O)c1csc(-c2c(-c3ccc(F)cc3)noc2CNC(=O)c2ccnc(Cl)c2)n1 [Example 629]
56 | > 1000 | CC(C)NC(=O)c1csc(-c2c(-c3ccc(F)cc3)noc2CNC(=O)c2cc(Cl)ccn2)n1 [Example 630]
57 | ≤ 1000 | CC(C)NC(=O)c1csc(-c2c(-c3ccc(F)cc3)noc2CNC(=O)c2ccncc2Cl)n1 [Example 631]
58 | > 1000 | CC(C)NC(=O)c1csc(-c2c(-c3ccc(F)cc3)noc2CNC(=O)c2c(F)cccc2F)n1 [Example 632]
59 | > 1000 | CC(C)NC(=O)c1csc(-c2c(-c3ccc(F)cc3)noc2CNC(=O)c2cccc(F)c2F)n1 [Example 633]
60 | > 1000 | CC(C)NC(=O)c1csc(-c2c(-c3ccc(F)cc3)noc2CNC(=O)c2ccc(F)cc2F)n1 [Example 634]
61 | > 1000 | CC(C)NC(=O)c1csc(-c2c(-c3ccc(F)cc3)noc2CNC(=O)c2cc(F)cc(F)c2)n1 [Example 635]
62 | > 1000 | CC(C)NC(=O)c1csc(-c2c(-c3ccc(F)cc3)noc2CNC(=O)c2ccc(F)c(F)c2)n1 [Example 636]
63 | > 1000 | CC(CC(=O)NCc1onc(-c2ccc(F)cc2)c1-c1nc(C(=O)NC(C)C)cs1)CC(C)(C)C (stereo not shown) [Example 637]
64 | > 1000 | CC(C)NC(=O)c1csc(-c2c(-c3ccc(F)cc3)noc2CNC(=O)c2cc3ccccc3o2)n1 [Example 638]
65 | > 1000 | CC(C)NC(=O)c1csc(-c2c(-c3ccc(F)cc3)noc2CNC(=O)C2CCc3ccccc32)n1 (stereo not shown) [Example 639]
66 | > 1000 | CC(C)NC(=O)c1csc(-c2c(-c3ccc(F)cc3)noc2CNC(=O)C(Cl)(Cl)Cl)n1 [Example 640]
67 | > 1000 | CC(C)NC(=O)c1csc(-c2c(-c3ccc(F)cc3)noc2CNC(=O)/C=C/c2ccccc2O)n1 [Example 641]
68 | > 1000 | CC(=O)c1ccc(C(=O)NCc2onc(-c3ccc(F)cc3)c2-c2nc(C(=O)NC(C)C)cs2)cc1 [Example 642]
69 | > 1000 | CC(C)NC(=O)c1csc(-c2c(-c3ccc(F)cc3)noc2CNC(=O)/C=C/c2cccc(O)c2)n1 [Example 643]
70 | > 1000 | CC(=O)c1cccc(C(=O)NCc2onc(-c3ccc(F)cc3)c2-c2nc(C(=O)NC(C)C)cs2)c1 [Example 644]
71 | > 1000 | CC(=O)c1ccccc1C(=O)NCc1onc(-c2ccc(F)cc2)c1-c1nc(C(=O)NC(C)C)cs1 [Example 645]
72 | > 1000 | CC(C)NC(=O)c1csc(-c2c(-c3ccc(F)cc3)noc2CNC(=O)c2ccc(C(C)C)cc2)n1 [Example 646]
73 | > 1000 | Cc1ccccc1CCC(=O)NCc1onc(-c2ccc(F)cc2)c1-c1nc(C(=O)NC(C)C)cs1 [Example 647]
